pIC50: −log10 of the molar value.
Columns and labels:
[1] = test system: carrageenan-induced monoarthritis in rat; assay: Monoarthritis induced by carrageenan, Paw Print setup (hindpaw weight-bearing, "Walking pain"); type: in vivo; settings: for difference in weight bearing between the hind paws: three hours after carrageenan (two hours after administration), vehicle group 30.2±3.2%, mean ±SEM, n=8
Protocol: The compounds used according to the invention when given by systemic administration to mice or rats, specifically reduce pain in the rat carrageenan test as described by Tonussi and Ferreira (Pain 1992, 48, 421-427). One single injection of carrageenan directly into the rat knee joint produces symptoms peaking at 3 to 4 hours and lasting for one to two days, and which are sensitive to treatment by most anti-nociceptive drugs (Tonussi and Ferreira, Pain 1992, 48, 421-427). Under isoflurane anesthesia, 50 μL of carrageenan (7.5 mg/mL) was injected into the left tibio-tarsal (ankle) joint from the dorsal side. This injection causes a localized inflammation increasing to a maximum between 4 h to 8 h after induction, after which it gradually decreases, and the animals display decreased weight bearing on and guarding of the limb. The Paw Print walkway consists of a 100×10 cm path with an access point at one short end and an exit at the other, and the rats are trained to make a swift, continuous passage. The walkway has a glass floor where light is projected into one long edge via fiber optics. Projecting the light in this fashion allows for virtually complete internal reflection within the glass floor. Only where an object touches the glass, such as the placement of a rat paw, light is scattered at the point of contact and produces an illuminated print (Betts, Duckworth, Eng. Med. 1978, 7, 223-228) that is recorded by a wide-angle camera placed under the walkway. The light intensity (range 0-255) of the illumination depends on the degree of contact against the floor and increases with the applied pressure (Clarke, Physiology & Behavior 1995, 58, 415-419). The Paw Print setup is a modified version of the CatWalk introduced by […], van Laar, Veldhuis, Gispen (J. Neurotrauma 2001, 18, 187-201), and has a computerized gait detection algorithm extracting several parameters pertaining to the rat's gait pattern and weight-bearing. The animals were trained to cross the walkway twice, one and two days before induction of monoarthritis. Recordings were subsequently made on the day of testing, immediately before, and three and five hours after carrageenan injection, corresponding to two and four hours after per oral administration of test compound. The following parameters were used for analysis: Weight-bearing per paw=The total sum of maximum light intensities for all pixels in the print of one paw is multiplied by the number of pixels of the print area. A paw placement consists of a number of pixels with light intensity above a certain threshold value (80 in this study). During the time course of one paw placement, a maximum value of light intensity is recorded for each pixel. Based on the weight-bearing results, the Paw Print algorithm chooses the median print per paw in one walkway crossing. The median weight-bearing of each paw constitutes a percentage of the sum of all four paws' median weight-bearing results. The difference in percent weight-bearing between the two hind paws is shown (“Walking pain”). The test compounds were administered 60 min after induction of monoarthritis. […] Results were analysed using 1-Way ANOVA followed by Newman-Keuls for comparison between treatment groups for data obtained at each time-point after administration. The level of significance was set at p<0.05 (SigmaStat® 2.03).

[2] = target: T1, human Trk A kinase (Homo sapiens, UniProt P04629); assay: Trk A kinase assay (Alphascreen); type: biochemical; settings: 70 μM ATP, 20 minutes, room temperature
T1 construct: HIS; made in house; host or cells: SF9 cells
Protocol: After incubation of the kinase with a biotinylated substrate and adenosine triphosphate (ATP) for 20 minutes at room temperature, the kinase reaction was stopped by the addition of 30 mM ethylenediaminetetraacetic acid (EDTA). The reaction was performed in 384 well microtitre plates and the reaction products were detected with the addition of strepavidin coated Donor Beads and phosphotyrosine-specific antibodies coated Acceptor Beads using the EnVision Multilabel Plate Reader after an overnight incubation at room temperature.

T1 sequence (P04629 442-796): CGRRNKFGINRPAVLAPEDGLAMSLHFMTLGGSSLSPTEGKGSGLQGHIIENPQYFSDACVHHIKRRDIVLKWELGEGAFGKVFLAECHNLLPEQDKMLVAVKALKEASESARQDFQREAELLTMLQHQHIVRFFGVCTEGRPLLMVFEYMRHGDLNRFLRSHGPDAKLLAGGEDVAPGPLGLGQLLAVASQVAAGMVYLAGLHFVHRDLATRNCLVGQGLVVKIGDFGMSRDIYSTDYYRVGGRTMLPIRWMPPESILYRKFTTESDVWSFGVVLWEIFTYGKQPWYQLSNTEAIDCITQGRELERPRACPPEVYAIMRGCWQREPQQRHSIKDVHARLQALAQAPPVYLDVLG

CC(C)Oc1cc(Nc2nc(N[C@@H](C)c3ccc(F)cn3)ncc2Cl)n[nH]1 [5-Chloro-N^2-[(1S)-1-(5-fluoropyridin-2-yl)ethyl]-N^4-(5-isopropoxy-1H-pyrazol-3-yl)pyrimidine-2,4-diamine]
difference in weight bearing between the hind paws ([1]; 30 μmol/kg per oral): 9.2±4.0%
difference in weight bearing between the hind paws ([1]; 120 μmol/kg per oral): 14.9±4.4%
effect on the inflammatory pain induced by intra-articular ankle injection of carrageenan ([1]; all doses (30 μmol/kg, 60 μmol/kg p.o.)): significant effect
hindpaw weight distribution compared to the vehicle group ([1]; all three doses 30, 60 and 120 μmol/kg per oral, both at two and four hours after administration, p<0.05): significantly reduced
dose dependence of the effect on hindpaw weight distribution ([1]; dose interval tested, 30-120 μmol/kg per oral): no apparent dose dependence

C[C@H](Nc1ncc(Br)c(Nc2cc(C3CC3)[nH]n2)n1)c1ccc(F)cn1 [(S)-5-Bromo-N^4-(5-cyclopropyl-1H-pyrazol-3-yl)-N^2-(1-(5-fluoropyridin-2-yl)ethyl)pyrimidine-2,4-diamine]
pIC50 [2]: 8.30

C[C@H](Nc1ncc(Cl)c(Nc2cc(C3CC3)[nH]n2)n1)c1ccc(F)cn1 [(S)-5-Chloro-N^4-(5-cyclopropyl-1H-pyrazol-3-yl)-N^2-(1-(5-fluoropyridin-2-yl)ethyl)pyrimidine-2,4-diamine]
pIC50 [2]: 8.10

C[C@H](Nc1ncc(F)c(Nc2cc(C3CC3)[nH]n2)n1)c1ccc(F)cn1 [(S)-5-Fluoro-N^4-(5-cyclopropyl-1H-pyrazol-3-yl)-N^2-(1-(5-fluoropyridin-2-yl)ethyl)pyrimidine-2,4-diamine]
pIC50 [2]: 8.00

Source: patent publication US20080108633A1, “Use 540” (AstraZeneca AB, priority 2006, published 2008)
